The text below walks through data of US20060135625A1, “Method of administering split doses of a vascular targeting agent” (priority 2002, published 2006).

The subject of series [1] is spontaneous T138 mammary tumors. As to the kind of experiment: tumor growth delay in T138 tumor-bearing mice. The format is in vivo. The protocol: (§1) 2) Spontaneous T138 tumor model. The T138 tumor-bearing mice (“T138”) spontaneously developed mammary tumors between 5 and 18 months of age due to genetic predisposition.
(§2) In each of the following Examples 1-4, CA4DP (OXiGENE Inc, Watertown, Mass., USA) was dissolved in 0.9% saline at appropriate concentrations to allow each dose to be injected i.p. in 0.1 ml per 10 g body weight. 0.9% saline was used for control treatments.
(§3) The anti-tumor effect of split dosing therapy was also assessed by an analysis of tumor growth delay in both CaNT and T138 tumor-bearing mice. For experiments involving the CaNT, dose groups comprised 5 to 6 animals, whereas for the T138, 10 to 15 animals were used. Following initial drug treatment, tumor growth was determined by measuring the diameter of each tumor in 3 orthogonal orientations two or three days each week.

The subject of series [2] is microtubule assembly in tumor endothelium. Conditions: cited from earlier work.
The subject of series [3] is murine adenocarcinoma NT (CaNT) tumor. As to the kind of experiment: in vitro clonogenic (colony-forming) assay of tumor cells isolated from treated CaNT tumor-bearing animals. The class given is in vivo, mice. The protocol: (§4) 1) Transplanted tumor model. A murine adenocarcinoma NT (“CaNT”) tumor was transplanted from a syngeneic donor and implanted subcutaneously onto the rear dorsum of 10-16 week old female CBA/Gy f TO mice, by injecting 0.05 ml of a crude cell suspension prepared by mechanical dissociation of the excised. Tumors were selected for treatment with the VTA CA4DP when the geometric mean diameter (“GMD”) reached 5-6.5 mm (150-300 mg), approximately 3-4 weeks after implantation.
as §2
To compare the anti-tumor effect of single and divided VTA dose scheduling, the survival of tumor cells isolated from a treated CaNT tumor-bearing animals was assessed by an in vitro clonogenic (colony-forming) assay, as described previously (Chaplin et al., Anticancer Research, 1999, 19: 189-196). Tumors were excised 18-24 h after CA4P injection. Two tumors were combined for each data point, weighed, minced with scissors and then disaggregated for 1 hour at 37° C. in an enzyme cocktail of 1 mg/ml pronase, 0.5 mg/ml DNase and 0.5 mg/ml collagenase. Following digestion, samples were passed through a 25G needle and a 35 μm filter to obtain a single cell suspension. Haemocytometer counts of trypan-blue excluding cells were made and known numbers of viable cells added to a feeder layer of heavily irradiated V79-379A Chinese hamster cells. After 7-10 days incubation, colonies were fixed, stained with methylene blue and counted. The data were calculated as surviving fraction per gram of tumor, which is a product of relative surviving fraction and relative cell yield per gram of tumor. Each experimental group was repeated at least 3 times, so that at least 6 tumors contribute to each data point.

For series [4] the test system is unchanged. Kind of series: tumor growth delay in CaNT tumor-bearing mice. The format is in vivo. How it is done:
as §4, §2, §3
The effect of repeated split VTA dosing therapy was also assessed by an analysis of tumor growth delay in both CaNT tumor-bearing mice. […] Repeated administration of total daily dose (50 mg/kg) 5 days a week for 2 weeks, produced a significant delay in tumor growth of approximately 2 days. Tumor growth delay was further improved by repeat administration of split dosing (2 doses of 25 mg/kg per day separated by a 6 hour interval), 5 days a week for 2 weeks (growth delay of approximately 5 days).

Series [5] concerns T138 tumor vasculature. As to the kind of experiment: functional vascular volume (Hoechst 33342) in T138 tumors. The format is in vivo, mice. Conditions: 24 hours post-treatment. The protocol:
as §1, §2
The effect of VTA dose splitting on the tumor vascular response was also investigated in both CaNT and T138 tumor types, by measuring the functional vascular volume at 24 hours following treatment with single or split doses of CA4DP. Functional vascular volume is defined as the volume of tumor tissue perfused by tumor blood vessels, and is measured using the fluorescent DNA-binding dye Hoechst 33342 (Sigma-Aldrich Company Ltd., Dorset, UK) (Smith et al, British Journal of Cancer, 1988, 57: 247-253). […] Functional vessels were identified by the fluorescent outline of perivascular tissue and vascular volumes were determined using a random point scoring system based on that described by Chalkley (Chalkley, J. Natl Cancer Inst., 1943, 4: 47-53). At least 100 fields were scored at each of the three tumor levels and the results for treated tumors were expressed as a percentage of control values.

For series [6], the system named is CaNT tumor vasculature. Kind of series: functional vascular volume (Hoechst 33342) in CaNT tumors. The format is in vivo, mice. Conditions: for reduction in perfused vascular volume: CaNT, 24 hours post-treatment. The protocol: as §4, §2
The effect of VTA dose splitting on the tumor vascular response was also investigated in both CaNT and T138 tumor types, by measuring the functional vascular volume at 24 hours following treatment with single or split doses of CA4DP. Functional vascular volume is defined as the volume of tumor tissue perfused by tumor blood vessels, and is measured using the fluorescent DNA-binding dye Hoechst 33342 (Sigma-Aldrich Company Ltd., Dorset, UK) (Smith et al, British Journal of Cancer, 1988, 57: 247-253). The dye was dissolved in 0.9% saline at 6.25 mg/ml and injected i.v. at a dose of 10 mg/kg at 24 hours post-treatment. Tumors were excised and frozen 1 minute later. Sections were cut at three levels and observed under UV illumination. Functional vessels were identified by the fluorescent outline of perivascular tissue and vascular volumes were determined using a random point scoring system based on that described by Chalkley (Chalkley, J. Natl Cancer Inst., 1943, 4: 47-53). At least 100 fields were scored at each of the three tumor levels and the results for treated tumors were expressed as a percentage of control values.

For series [7] the following is noted: human plasma; cited from earlier work.
Series [8] relates to tubulin. The note with it: U.S. Pat. No. 4,996,237; cited from earlier work.

Take `COc1ccc(/C=C\c2cc(OC)c(OC)c(OC)c2)cc1OP(=O)([O-])[O-].[Na+].[Na+]` [CA4DP, Combretastatin A-4 Disodium Phosphate Prodrug]: the tumor growth delay entry was “no effect on tumor growth” in series [1] (single dose of 500 mg/kg); “approximately 4 days” in series [1] (two equal doses of 250 mg/kg separated by 3 hours); “did not delay growth relative to control” in series [4] (CaNT mice, single 200 mg/kg dose i.p.); “approximately 3 days” in series [4] (CaNT mice, two equal doses of 100 mg/kg separated by 3 hours); “approximately 5 days” in series [4] (CaNT, repeated split dosing, 2 doses of 25 mg/kg per day separated by 6 hours, 5 days a week for 2 weeks); “approximately 2 days” in series [4] (CaNT, repeated total daily dose 50 mg/kg, 5 days a week for 2 weeks). Besides, the “inhibition of microtubule assembly” value in series [2] was “potent inhibitor of microtubule assembly”. For the same compound, the “cell killing (surviving fraction of tumor cells)” value in series [3] (two equal doses of 100 mg/kg i.p. separated by 1-6 hours, compared with a single 200 mg/kg dose, tumors excised 18-24 h after injection) is listed as “significantly more cell killing”; in series [3] (two equal doses of 100 mg/kg, time interval between doses 2 to 4 hours (p<0.05)), “most pronounced”; in series [3] (unequal doses separated by 4 hours, compared with equal doses), “less effective than equal doses of treatment”. Also, the “effect on tumor growth relative to control” value in series [4] (CaNT, single dose 50 mg/kg) is reported as “only minimal effects on tumor growth”. Further, the “reduction of perfused vascular volume” value in series [5] (T138, single dose 200 mg/kg) was “completely ineffective”. The “amount of perfused vascular tissue, of the control value” in series [5] (T138, two split doses of 100 mg/kg) was determined as 50%. The “reduction in perfused vascular volume” value in series [6] (single 50 mg/kg dose) is listed as 40%; in series [6] (two 25 mg/kg doses separated by 3 hours), 80%. Moreover, the “reducing the fraction of perfused vascular volume” value in series [6] (two equal split doses compared with a single dose, observed in both CaNT and T138 tumor models) was “significantly more effective than a single dose”.
`COc1ccc(/C=C\c2cc(OC)c(OC)c(OC)c2)cc1O` [CA-4, Combretastatin A-4]: the solubility entry in series [7] is reported as “insolubility”. For the same compound, in series [8], the tubulin binding activity entry is recorded as “found to have tubulin binding activity”.
